Patent US20230219978A1, “COMPOUND HAVING MACROCYCLIC STRUCTURE AND USE THEREOF” (SCINNOHUB PHARMACEUTICAL CO., LTD, priority 2020, published 2023)

Legend:
Assay type in all cases: biochemical
RET G810R = molecular target: T1, RET G810R (Homo sapiens, UniProt P07949, G810R); experiment: In vitro kinase activity assay (mobility shift assay), RET G810R; conditions: ATP 201 μM, reaction time 4 h
T1 construct: purchased Proqinase 1724-0000-1
Protocol: (§1) The IC50 (half inhibitory concentration) values of the compounds were used as an indicator to evaluate the inhibitory effect of the compound on RET wild-type, RET mutant, TRKa, SRC, BTK and/or mutated BTK kinase.
(§2) Using the method of Mobility shift assay, the compounds were tested for inhibitory activity against the following kinases: RET wild type, RET mutant, TRKa, SRC, BTK and/or mutated BTK. The initial concentration of the test compound was 1000 nM, 3-fold dilution, 10 concentrations, detected in a well for each concentration.
(§3) 20 mM hydroxyethylpiperazineethanesulfonic acid (Hepes) (pH 7.5) buffer, 10 mM MgCl2, 1 mM ethylene glycol bis(aminoethyl ether)tetraacetic acid (EGTA), 0.02% polyoxyethylene lauryl ether (Brij35), 0.02 mg/ml […] (BSA), 0.1 mM Na3VO4, 2 mM dithiothreitol (DTT), 1% DMSO.
(§4) The test compounds were dissolved in 100% dimethyl sulfoxide (DMSO) system, and prepared as 10 mM for use, and stored in a nitrogen cabinet away from light.
(§5) • (1) Preparing 1× kinase reaction buffer. • (2) Preparation of compound concentration gradient: the initial concentration of the compounds was 1000 nM, which was diluted as 100-fold final concentration of solution in 100% dimethyl sulfoxide (DMSO) in a 384-well plate. The compound was accurately 3-fold diluted with the kinase buffer solution, 10 concentrations in total, and the final concentration was 0.0508 nM. The 100-fold final concentration of solution in 100% dimethyl sulfoxide (DMSO) was obtained by dilution in 384 source plate. The liquid separator Echo 550 was used to transfer 250 nl of 100-fold final concentration of compound to the target 384 well plate. 250 nl of DMSO was added to the positive and negative control wells. • (3) 2.5-fold final concentration of kinase solution was prepared by the 1× kinase buffer. • (4) 10 4, of 2.5-fold final concentration of kinase solution was added to the compound well and the positive control well, respectively; 10 4, of 1× kinase buffer was added to the negative control well. • (5) After centrifuging at 1000 rpm for 30 second, the reaction plate was shaken and mixed, followed by incubation at room temperature for 10 min. • (6) a mixed solution of 25/15-fold final concentration of adenosine triphosphate (ATP) and kinase substrate was prepared by 1× kinase buffer. • (7) The mixed solution (15 μL) of 25/15-fold final concentration of adenosine triphosphate (ATP) and substrate was added to initiate the reaction. • (8) 384-well plate was centrifuged at 1000 rpm for 30 second, shaken and mixed well, and then incubated at room temperature for 30-240 min. • (9) After stopping the kinase reaction, the plate was centrifugated at 1000 rpm for 30 second, shaken and mixed well. • (10)The conversion rate was read with Caliper EZ Reader.
(§6) wherein Conversion%_sample is the conversion rate reading of the sample; Conversion%_min: the mean value of negative control wells, representing the conversion rate reading of wells without enzymes; Conversion%_max: the mean value of positive control wells, representing the conversion rate reading of wells without compound inhibition.
(§7) The log value of concentration was taken as the X axis, and the percentage inhibition rate was taken as the Y axis. Graphpad 6.0 analysis software was used to fit the dose-response curve, so as to obtain the IC50 value of each compound on the enzyme activity

RET wt = molecular target: T2, RET wt (Homo sapiens, UniProt P07949); experiment: In vitro kinase activity assay (mobility shift assay), RET wild type; conditions: ATP 16 μM, reaction time 60 min
T2 construct: purchased Carna 08-159
T2 sequence (P07949 29-1114): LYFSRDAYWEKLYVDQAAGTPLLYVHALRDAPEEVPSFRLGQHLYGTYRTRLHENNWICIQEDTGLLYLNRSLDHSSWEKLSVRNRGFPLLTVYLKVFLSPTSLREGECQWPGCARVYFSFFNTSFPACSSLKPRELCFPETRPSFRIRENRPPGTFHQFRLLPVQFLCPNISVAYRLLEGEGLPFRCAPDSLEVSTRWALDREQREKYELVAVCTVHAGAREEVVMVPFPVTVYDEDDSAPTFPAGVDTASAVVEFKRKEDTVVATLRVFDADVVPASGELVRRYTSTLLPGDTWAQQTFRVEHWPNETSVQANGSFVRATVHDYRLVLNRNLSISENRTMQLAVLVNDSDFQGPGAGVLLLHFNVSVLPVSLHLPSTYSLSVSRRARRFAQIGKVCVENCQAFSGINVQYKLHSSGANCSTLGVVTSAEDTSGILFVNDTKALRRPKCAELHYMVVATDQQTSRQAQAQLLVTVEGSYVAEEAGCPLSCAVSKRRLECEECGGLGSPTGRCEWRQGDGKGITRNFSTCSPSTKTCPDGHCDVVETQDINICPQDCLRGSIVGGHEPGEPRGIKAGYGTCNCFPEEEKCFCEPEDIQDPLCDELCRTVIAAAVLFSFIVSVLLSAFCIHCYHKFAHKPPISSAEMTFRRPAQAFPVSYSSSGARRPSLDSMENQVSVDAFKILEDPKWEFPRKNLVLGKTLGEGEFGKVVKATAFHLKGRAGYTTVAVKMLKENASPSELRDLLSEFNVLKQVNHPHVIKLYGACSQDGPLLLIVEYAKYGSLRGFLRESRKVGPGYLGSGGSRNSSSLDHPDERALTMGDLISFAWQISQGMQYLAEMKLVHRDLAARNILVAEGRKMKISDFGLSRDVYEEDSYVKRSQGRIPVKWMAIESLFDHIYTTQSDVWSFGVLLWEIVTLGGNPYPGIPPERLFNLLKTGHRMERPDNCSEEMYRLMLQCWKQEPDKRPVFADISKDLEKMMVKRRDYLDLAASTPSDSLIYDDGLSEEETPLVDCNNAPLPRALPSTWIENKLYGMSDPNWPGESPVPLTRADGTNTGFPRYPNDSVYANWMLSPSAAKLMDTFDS
Protocol: as §1, §2, §3, §4, §5, §6, §7

RET V804M = molecular target: T3, RET V804M (Homo sapiens, UniProt P07949, V804M); experiment: In vitro kinase activity assay (mobility shift assay), RET V804M; conditions: ATP 5.4 μM, reaction time 60 min
T3 construct: purchased signalchem R02-12GG
T3 sequence (P07949 29-1114 V804M): as the sequence (P07949 29-1114) above, with V776M counted along it
Protocol: as §1, §2, §3, §4, §5, §6, §7

T1 sequence (P07949 29-1114 G810R): as the sequence (P07949 29-1114) above, with G782R counted along it

IC50 (RET G810R) | IC50 (RET wt) | IC50 (RET V804M) | Compound
21.8 nM | 1 nM | – | CC(C)OC(=O)Nc1ccc(-c2c3nc4c(cnn4c2N)C(=O)NC[C@H](C)Oc2ncc(F)cc2CN3)cc1 [Example 61, iso-propyl (4-((S, 1^3E, 1^4E)-1^7-amino-4^5-fluoro-6-methyl-9-oxo-5-oxa-2,8-diaza-1(5,3)-pyrazolino[1,5-a]pyrimidin-4(3,2)-pyridinacyclononaphan-1^6-yl)-phenyl)carbamate]
35.7 nM | 1.19 nM | 3.58 nM | CCCOC(=O)Nc1ccc(-c2c3nc4c(cnn4c2N)C(=O)NC[C@H](C)Oc2ncc(F)cc2CN3)cc1 [Example 67, propyl (4-((S, 1^3E, 1^4E)-1^7-amino-4^5-fluoro-6-methyl-9-oxo-5-oxa-2,8-diaza-1(5,3)-pyrazolino [1,5-a]pyrimidin-4(3,2)-pyridinacyclononaphan-1^6-yl)-phenyl)carbamate]
130 nM | 2.4 nM | 38 nM | COc1ccc(-c2c3nc4c(cnn4c2N)C(=O)NC[C@H](C)Oc2ncc(F)cc2CN3)cc1 [Example 59, (S, 1^3E, 1^4E)-1^7-amino-4^5-fluoro-1^6-(4-methoxyphenyl)-6-methyl-5-oxo-2,8-diaza-1(5,3)-pyrazolo[1,5-a]pyrimidin-4(3,2)-pyridinacyclononaphan-9-one]
197 nM | 1.9 nM | – | CNC(=O)Nc1ccc(-c2cn3ncc4c3nc2NCc2cc(F)cnc2O[C@@H](C)CNC4=O)c(Cl)c1 [Compound 35, 1-(3-chloro-4-((S, 1^3E, 1^4E)-4^5-fluoro-6-methyl-9-oxo-5-oxo-2,8-diaza-1(5,3)-pyrazolo[1,5-a]pyrimidin-4(3,2)-pyridinacyclononaphan-1^6-yl)phenyl)-3-methylurea]
> 1000 nM | 89 nM | 384 nM | CCN(C)C(=O)Nc1ccc(-c2c3nc4c(cnn4c2N)C(=O)NC[C@H](C)Oc2ncc(F)cc2CN3)cc1 [Example 81, 3-(4-((S, 1^3E,VE)-1^7-amino-4^5-fluoro-6-methyl-9-oxo-5-oxa-2,8-diaza-1(5,3)-pyrazolo[1,5-a]pyrimidin-4(3,2)-pyridinacyclononaphan-1^6-yl)-phenyl)-1-ethyl-1-methylure a]
> 1000 nM | 49 nM | 281 nM | CCNC(=O)Cc1ccc(-c2c3nc4c(cnn4c2N)C(=O)NC[C@H](C)Oc2ncc(F)cc2CN3)cc1 [Example 83, 2-(4-((S, 1^3E, 1^4E)-1^7-4^5-fluoro-6-methyl-9-oxo-5-oxa-2,8-diaza-1(5,3)-pyrazolo[1,5-a]pyrimidin-4(3,2)-pyridinacyclononaphan-1^6-yl)phenyl)-N-ethylacetamide]
> 1000 nM | > 1000 nM | > 1000 nM | C[C@H]1CNC(=O)c2cnn3cc(-c4ccccc4)c(nc23)NCc2cc(Nc3ccccn3)cnc2O1 [Compound 48, (S, 1^3E, 1^4E)-6-methyl-1^6-phenyl-4^5-(pyridin-2-ylamino)-5-oxa-2,8-diaza-1(5,3)-pyrazolo[1,5-a]pyrimidina-4(3,2)-pyridinacyclononaphan-9-one]
> 1000 nM | > 1000 nM | > 1000 nM | C[C@H]1CNC(=O)c2cnn3cc(-c4ccc(Nc5ncco5)cc4)c(nc23)NCc2cc(F)cnc2O1 [Compound 42, (S, 1^3E, 1^4E)-4^5-fluoro-6-methyl-1^6-(4-(oxazol-2-amino)phenyl)-5-oxa-2,8-diaza-1(5,3)-pyrazolo[1,5-a] pyrimidin-4(3,2)-pyridinacyclononaphan-9-one]
238 nM | 4.4 nM | 137 nM | Nc1c(-c2ccccc2)c2nc3c(cnn13)C(=O)NCCCc1ncc(F)cc1CN2 [Example 73, (1^3E, 1^4E)-1^7-(amino)-4^5-fluoro-1^6-phenyl-2,8-aza-1(5,3)-pyrazolo[1,5-a]pyrimidinyl-4(3,2)-pyridinacyclononaphan-9-one]
376 nM | 3 nM | – | CNc1ccc(-c2cn3ncc4c3nc2NCc2cc(F)cnc2O[C@@H](C)CNC4=O)c(Cl)c1 [Compound 39, (S, 1^3E, 1^4E)-1^6-(4-methylamino-2-chlorophenyl)-4^5-fluoro-6-methyl-5-oxa-2,8-diaza-1(5,3)-pyrazolo[1,5-a]pyrimidina-4(3,2)-pyridinacyclononaphan-9-one]
588 nM | 5.4 nM | – | C[C@H]1CNC(=O)c2cnn3c(N)c(-c4ccc5nc[nH]c5c4)c(nc23)NCc2cc(F)cnc2O1 [Compound 52, (S, 1^3E, 1^4E)-1^7-amino-1 ^6-(1H-benzo [d]imidazol-6-yl)-4^5-fluoro-6-methyl-5-oxo-2,8-diaza-1(5,3)-pyrazolo[1,5-a]pyrimidin-4(3,2)-pyridinacyclononaphan-9-one]
84.3 nM | 1.1 nM | – | CNC(=O)Nc1ccc(-c2c3nc4c(cnn4c2N)C(=O)NC[C@H](C)Oc2ncc(F)cc2CN3)cc1 [Example 55, 1-(4-((S, 1^3E, 1^4E)-1^7-amino-4^5-fluoro-6-methyl-9-oxo-5-oxo-2,8-diaza-1(5,3)-pyrazolo[1,5-a]pyrimidin-4(3,2)-pyridinacyclononaphan-1^6-yl)phenyl)-3-methylurea]
> 1000 nM | 286 nM | – | C[C@H]1CNC(=O)c2cnn3cc(-c4ccc(NS(C)(=O)=O)cc4Cl)c(nc23)NCc2cc(F)cnc2O1 [Compound 44]
96.9 nM | 5.1 nM | – | C[C@H]1CNC(=O)c2cnn3cc(-c4ccc(NC(=O)OCC5CC5)cc4Cl)c(nc23)NCc2cc(F)cnc2O1 [Compound 46, cyclopropylmethyl (3-chloro-4-((S, 1^3E, 1^4E)-4^5-fluoro-6-methyl-9-oxo-5-oxadiaza-2,8-1(5,3)-pyrazolo[1,5-a]pyrimidin-4(3,2)-pyridinacyclononaphan-1^6-yl)phenyl)carbamate]
> 1000 nM | 47 nM | – | CC(C)Nc1ccc(-c2c3nc4c(cnn4c2N)C(=O)NC[C@H](C)Oc2ncc(F)cc2CN3)cc1 [Example 57, (S, 1^3E, 1^4E)-1^7-amino-4^5-fluoro-1^6-(4-(isopropylamino)phenyl)-6-methyl-5-oxo-2,8-diaza-1(5,3)-pyrazolo[1,5-a]pyrimidin-4(3,2)-pyridinacyclononaphan-9-one]
> 1000 nM | 95 nM | – | C[C@H]1CNC(=O)c2cnn3cc(-c4cn[nH]c4)c(nc23)NCc2cc(F)cnc2O1 [Compound 37, (S, 1^3E, 1^4E)-4^5-fluoro-6-methyl-1^6-(1H-pyrazol-4-yl)-5-oxa-2,8-diaza-1(5,3)-pyrazolo[1,5-a]pyrimidin-4(3,2)-pyridinacyclononaphan-9-one]
155 nM | 3.4 nM | – | C[C@H]1CNC(=O)c2cnn3c(N)c(-c4ccc(N(C)C)cc4)c(nc23)NCc2cc(F)cnc2O1 [Example 58, (S, 1^3E, 1^4E)-1^7-amino-1^6-(4-(dimethylamino)phenyl)-4^5-fluoro-6-methyl-5-oxo-2,8-diaza-1(5,3)-pyrazolo[1,5-a]pyrimidin-4(3,2)-pyridinacyclononaphan-9-one]
> 1000 nM | 27 nM | – | C[C@H]1CNC(=O)c2cnn3cc(-c4ccc(N)cc4)c(nc23)NCc2cc(F)cnc2O1 [Compound 36, (S, 1^3E, 1^4E)-1^6-(4-aminophenyl)-4^5-fluoro-6-methyl-5-oxo-2,8-diaza-1(5,3)-pyrazolo[1,5-a]pyrimidin-4(3,2)-pyridinacyclononaphan-9-one]
377 nM | 5.4 nM | – | C[C@H]1CNC(=O)c2cnn3cc(-c4ccc5[nH]ccc5c4Cl)c(nc23)NCc2cc(F)cnc2O1 [Compound 34, (S, 1^3E, 1^4E)-1^6-(4-chloro-1H-indo1-5-yl)-4^5-fluoro-6-methyl-5-oxo-2,8-diaza-1(5,3)-pyrazolo[1,5-a]pyrimidin-4(3,2)-pyridinacyclononaphan-9-one]
